Experimental data reported in patent US20240293413A1, “COMPOUND AND METHOD FOR TREATING CHEMOTHERAPY-RELATED GASTROINTESTINAL SIDE EFFECTS” (ONQUALITY PHARMACEUTICALS CHINA LTD., priority 2021, published 2024).

System: Chemotherapeutic agent-caused diarrhea models of Balb/c mice
Experiment: Examples 1-229 (Table 3): oral CDK inhibitor, relief of diarrhea caused by a chemotherapeutic agent;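 also: percent of treated mice whose diarrhea grade fell below chemotherapy-group average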
Assay type: in vivo
Excerpt: Construction of mouse animal models: Chemotherapeutic agent-caused diarrhea models of Balb/c mice were constructed according to the administration mode and frequency of the chemotherapeutic agent as shown in Table 3.
Balb/c mice were fed for 1 week, and then divided into groups. The experiment was divided into a control group, a chemotherapeutic agent group, and a CDK inhibitor group, each of which comprised 10 mice, to perform the administration experiment, for which the administration dosage, mode, time and frequency were shown in Table 3. The control group: being intragastrically administered with the same solvent as that used in the CDK inhibitor group (the time was shown in Table 3), and then being injected/intragastrically administered with the same solvent as that used in the chemotherapeutic agent group (the administration mode was shown in Table 3): the chemotherapeutic agent group: being intragastrically administered with the same solvent as that used in the CDK inhibitor group (the time was shown in Table 3), and then being injected/intragastrically administered with the chemotherapeutic agent (the type, administration mode and dosage were shown in Table 3); the CDK inhibitor group: being intragastrically administered with the CDK inhibitor (the time was shown in Table 3), and then being administered with the chemotherapeutic agent (the mode and dosage were shown in Table 3).
The diarrhea grading of mice was observed and recorded every day.

## O=C1Nc2ccc([N+](=O)[O-])cc2/C1=C1/Nc2ccc(O)cc2/C1=N\O [AGM-130]
Example 39, Fluorouracil (5-Fu) intraperitoneal injection 125 mg/kg single, CDK inhibitor oral 80 mg/kg single 12 h before, cycle 10 days
  Relative remission rate (%): 30%

## C[C@H]1CC[C@H](n2c3cnccc3c3cnc(Nc4ccc5c(n4)CCN(C(=O)CO)C5)nc32)CC1 [AMG925]
Example 219, Fluorouracil 100 mg/kg and oxaliplatin 10 mg/kg intraperitoneal injection single, CDK inhibitor oral 150 mg/kg single, 2 h before, 10 days
  Relative remission rate (%): 60%

## O=C(NC1CCNCC1)c1[nH]ncc1NC(=O)c1c(Cl)cccc1Cl [AT-7519]
Example 205, Gemcitabine 60 mg/kg and paclitaxel 10 mg/kg intravenous injection single, CDK inhibitor oral 50 mg/kg single, 4 h before, 8 days
  Relative remission rate (%): 20%

## CN1CC[C@H](c2c(O)cc(O)c3c(=O)cc(-c4ccccc4Cl)oc23)[C@H](O)C1 [Alvocidib]
Example 119, Irinotecan (CPT-11) intraperitoneal injection 240 mg/kg single, CDK inhibitor oral 70 mg/kg single 6 h before, cycle 7 days
  Relative remission rate (%): 40%
Example 201, Gemcitabine 60 mg/kg and paclitaxel 10 mg/kg intravenous injection single, CDK inhibitor oral 70 mg/kg single, 6 h before, 8 days
  Relative remission rate (%): 50%

## COc1cc(F)ccc1-c1ncnc(Nc2cccc(C[S@](C)(=N)=O)c2)n1 [Atuveciclib]
Example 158, Docetaxel (DTX) intraperitoneal injection 10 mg/kg single, CDK inhibitor oral 50 mg/kg single 10 h before, cycle 8 days
  Relative remission rate (%): 30%

## COc1cc(F)ccc1-c1cc(Nc2cc(CS(C)(=N)=O)ccn2)ncc1F (centres unmarked) [BAY-1251152]
Example 38, Fluorouracil (5-Fu) intraperitoneal injection 125 mg/kg single, CDK inhibitor oral 60 mg/kg single 8 h before, cycle 10 days
  Relative remission rate (%): 20%

## CN1CCN(C(=O)c2ccc3cc(CCNc4ncnc5ccc(C#N)cc45)ccc3c2)CC1 [BCD-115]
Example 157, Docetaxel (DTX) intraperitoneal injection 10 mg/kg single, CDK inhibitor oral 80 mg/kg single 10 h before, cycle 8 days
  Relative remission rate (%): 40%
Example 217, Fluorouracil 100 mg/kg and irinotecan 200 mg/kg intravenous injection single, CDK inhibitor oral 80 mg/kg single, 4 h before, 10 days
  Relative remission rate (%): 20%

## CC(=O)c1c(C)c2cnc(Nc3ccc(C4CCN(CCS(C)(=O)=O)CC4)cn3)nc2n(C2CCCC2)c1=O [BEBT-209]
Example 187, Gemcitabine (GEM) intraperitoneal injection 120 mg/kg single, CDK inhibitor oral 80 mg/kg single, 4 h before, 8 days
  Relative remission rate (%): 40%
Example 207, Carboplatin 5 mg/kg and paclitaxel 10 mg/kg intraperitoneal injection single, CDK inhibitor oral 80 mg/kg single, 4 h before, 10 days
  Relative remission rate (%): 50%

## Nc1nccc(-c2ccc(O)c(-c3ccnc(N)n3)n2)n1 [BEY-1107]
Example 154, Docetaxel (DTX) intraperitoneal injection 10 mg/kg single, CDK inhibitor oral 150 mg/kg single 8 h before, cycle 8 days
  Relative remission rate (%): 40%
Example 216, Fluorouracil 100 mg/kg and irinotecan 200 mg/kg intravenous injection single, CDK inhibitor oral 150 mg/kg single, 2 h before, 10 days
  Relative remission rate (%): 30%

## CCN1CCN(Cc2ccc(Nc3ncc(F)c(-c4cc(F)c5nc6n(c5c4)C(C)CCC6)n3)nc2)CC1 (centres unmarked) [BPI-16350]
Example 30, Fluorouracil (5-Fu) intraperitoneal injection 125 mg/kg single, CDK inhibitor oral 150 mg/kg single 6 h before, cycle 10 days
  Relative remission rate (%): 80%
Example 71, Oxaliplatin intraperitoneal injection 20 mg/kg single, CDK inhibitor oral 150 mg/kg single 4 h before, cycle 8 days
  Relative remission rate (%): 40%
Example 196, Gemcitabine 60 mg/kg and paclitaxel 10 mg/kg intraperitoneal injection single, CDK inhibitor oral 150 mg/kg single, 2 h before, 8 days
  Relative remission rate (%): 50%

## Cl.Cl.Cl.Cl.OC[C@@H](O)[C@@H](CO)N1CCNCCNCCNCC1 [CS-3002]
Example 149, Docetaxel (DTX) intraperitoneal injection 10 mg/kg single, CDK inhibitor oral 200 mg/kg single 4 h before, cycle 8 days
  Relative remission rate (%): 70%
Example 223, Fluorouracil 100 mg/kg and oxaliplatin 10 mg/kg intraperitoneal injection single, CDK inhibitor oral 200 mg/kg single, 2 h before, 10 days
  Relative remission rate (%): 50%

## CN1CCN(C2CCN(c3ccc(Nc4ncc5sc(C(=O)N(C)C)c(C6CCCC6)c5n4)nc3)CC2)CC1 [FCN437]
Example 147, Docetaxel (DTX) intraperitoneal injection 10 mg/kg single, CDK inhibitor oral 90 mg/kg single 8 h before, cycle 8 days
  Relative remission rate (%): 60%
Example 206, Carboplatin 5 mg/kg and paclitaxel 10 mg/kg intraperitoneal injection single, CDK inhibitor oral 90 mg/kg single, 4 h before, 10 days
  Relative remission rate (%): 40%

## CC1CCC(n2c3cnccc3c3cnc(Nc4ccc5c(n4)CCN(C(=O)CO)C5)nc32)CC1 (centres unmarked) [FLX-925]
Example 27, Fluorouracil (5-Fu) intraperitoneal injection 125 mg/kg single, CDK inhibitor oral 75 mg/kg single 4 h before, cycle 10 days
  Relative remission rate (%): 50%
Example 69, Oxaliplatin intraperitoneal injection 20 mg/kg single, CDK inhibitor oral 75 mg/kg single 4 h before, cycle 8 days
  Relative remission rate (%): 60%
Example 85, Oxaliplatin intravenous injection 17.5 mg/kg single, CDK inhibitor oral 75 mg/kg single 6 h before, cycle 8 days
  Relative remission rate (%): 60%
Example 114, Irinotecan (CPT-11) intramuscular injection 250 mg/kg single, CDK inhibitor oral 75 mg/kg single 4 h before, cycle 7 days
  Relative remission rate (%): 50%

## CC[C@H](Nc1nc(NCc2cnc(C)cc2C)c2ncn(C(C)C)c2n1)[C@@H](C)O [Fadraciclib]
Example 122, Irinotecan (CPT-11) intraperitoneal injection 240 mg/kg single, CDK inhibitor oral 80 mg/kg single 8 h before, cycle 7 days
  Relative remission rate (%): 30%
Example 159, Docetaxel (DTX) intraperitoneal injection 10 mg/kg single, CDK inhibitor oral 80 mg/kg single 12 h before, cycle 8 days
  Relative remission rate (%): 20%

## CC(C)N1CCN(c2ccc(Nc3ncc4cc5n(c4n3)C3(CCCCC3)CNC5=O)nc2)CC1 [G1T38]
Example 40, Fluorouracil (5-Fu) intraperitoneal injection 125 mg/kg single, CDK inhibitor oral 150 mg/kg single 1 h before, cycle 10 days
  Relative remission rate (%): 20%
Example 41, Fluorouracil (5-Fu) intraperitoneal injection 125 mg/kg single, CDK inhibitor oral 150 mg/kg single 4 h before, cycle 10 days
  Relative remission rate (%): 40%
Example 42, Fluorouracil (5-Fu) intraperitoneal injection 125 mg/kg single, CDK inhibitor oral 150 mg/kg single 8 h before, cycle 10 days
  Relative remission rate (%): 70%
Example 43, Fluorouracil (5-Fu) intraperitoneal injection 125 mg/kg single, CDK inhibitor oral 150 mg/kg single 16 h before, cycle 10 days
  Relative remission rate (%): 50%
Example 79, Oxaliplatin intraperitoneal injection 20 mg/kg single, CDK inhibitor oral 150 mg/kg single 1 h before, cycle 8 days
  Relative remission rate (%): 20%
Example 80, Oxaliplatin intraperitoneal injection 20 mg/kg single, CDK inhibitor oral 150 mg/kg single 2 h before, cycle 8 days
  Relative remission rate (%): 40%
Example 81, Oxaliplatin intraperitoneal injection 20 mg/kg single, CDK inhibitor oral 150 mg/kg single 4 h before, cycle 8 days
  Relative remission rate (%): 40%
Example 82, Oxaliplatin intraperitoneal injection 20 mg/kg single, CDK inhibitor oral 150 mg/kg single 8 h before, cycle 8 days
  Relative remission rate (%): 70%
Example 83, Oxaliplatin intraperitoneal injection 20 mg/kg single, CDK inhibitor oral 150 mg/kg single 12 h before, cycle 8 days
  Relative remission rate (%): 70%
Example 84, Oxaliplatin intraperitoneal injection 20 mg/kg single, CDK inhibitor oral 150 mg/kg single 16 h before, cycle 8 days
  Relative remission rate (%): 50%
Example 125, Irinotecan (CPT-11) intraperitoneal injection 240 mg/kg single, CDK inhibitor oral 150 mg/kg single 4 h before, cycle 7 days
  Relative remission rate (%): 50%
Example 126, Irinotecan (CPT-11) intraperitoneal injection 240 mg/kg single, CDK inhibitor oral 150 mg/kg single 6 h before, cycle 7 days
  Relative remission rate (%): 60%
Example 128, Irinotecan (CPT-11) intramuscular injection 240 mg/kg single, CDK inhibitor oral 150 mg/kg single 2 h before, cycle 7 days
  Relative remission rate (%): 50%
Example 163, Docetaxel (DTX) intraperitoneal injection 10 mg/kg single, CDK inhibitor oral 150 mg/kg single 8 h before, cycle 8 days
  Relative remission rate (%): 70%
Example 164, Docetaxel (DTX) intraperitoneal injection 10 mg/kg single, CDK inhibitor oral 150 mg/kg single 12 h before, cycle 8 days
  Relative remission rate (%): 60%
Example 211, Carboplatin 5 mg/kg and paclitaxel 10 mg/kg intraperitoneal injection single, CDK inhibitor oral 150 mg/kg single, 8 h before, 10 days
  Relative remission rate (%): 40%
Example 212, Carboplatin 5 mg/kg and paclitaxel 10 mg/kg intraperitoneal injection single, CDK inhibitor oral 150 mg/kg single, 12 h before, 10 days
  Relative remission rate (%): 70%

## CC1=Nc2c(F)cc(-c3nc(Nc4ccc(C5CCN(C)CC5)cn4)ncc3F)cc2C12CCCC2 [GLR2007]
Example 155, Docetaxel (DTX) intraperitoneal 10 mg/kg single, CDK inhibitor oral 60 mg/kg single 8 h before, cycle 8 days
  Relative remission rate (%): 50%
Example 168, Docetaxel (DTX) intravenous injection 10 mg/kg single, CDK inhibitor oral 60 mg/kg single 4 h before, cycle 8 days
  Relative remission rate (%): 30%
Example 191, Gemcitabine (GEM) intraperitoneal injection 120 mg/kg single, CDK inhibitor oral 60 mg/kg single, 10 h before, 8 days
  Relative remission rate (%): 50%

## NS(=O)(=O)c1ccc(S(=O)(=O)Nc2cccc3c(Cl)c[nH]c23)cc1 [Indisulam]
Example 74, Oxaliplatin intraperitoneal injection 20 mg/kg single, CDK inhibitor oral 175 mg/kg single 4 h before, cycle 8 days
  Relative remission rate (%): 20%
Example 190, Gemcitabine (GEM) intraperitoneal injection 120 mg/kg single, CDK inhibitor oral 175 mg/kg single, 4 h before, 8 days
  Relative remission rate (%): 40%

## CN1CCN(c2ccc(Nc3ncc4cc(C#N)c(=O)n(C5CCCC5)c4n3)cc2)CC1 [ON123300]
Example 121, Irinotecan (CPT-11) intraperitoneal injection 240 mg/kg single, CDK inhibitor oral 250 mg/kg single 8 h before, cycle 7 days
  Relative remission rate (%): 60%
Example 202, Gemcitabine 60 mg/kg and paclitaxel 10 mg/kg intraperitoneal injection single, CDK inhibitor oral 250 mg/kg single, 2 h before, 8 days
  Relative remission rate (%): 50%

## CC(=O)c1c(C)c2cnc(N[C@@H]3CCOC[C@H]3O)cc2n(C2CCCC2)c1=O [PF-06842874]
Example 210, Carboplatin 5 mg/kg and paclitaxel 10 mg/kg intraperitoneal injection single, CDK inhibitor oral 80 mg/kg single, 6 h before, 10 days
  Relative remission rate (%): 40%
Example 222, Fluorouracil 100 mg/kg and oxaliplatin 10 mg/kg intraperitoneal injection single, CDK inhibitor oral 80 mg/kg single, 4 h before, 10 days
  Relative remission rate (%): 30%

## COCc1cc(C(=O)Nc2cc([C@H]3CC[C@@H](OC(=O)NC(C)C)C3)[nH]n2)n(C)n1 [PF-07104091]
Example 161, Docetaxel (DTX) intraperitoneal injection 10 mg/kg single, CDK inhibitor oral 50 mg/kg single 8 h before, cycle 8 days
  Relative remission rate (%): 40%
